# According to ChEMBL document CHEMBL1833834, “Clonal Rett Syndrome cell lines to test compounds for activation of wild-type MeCP2 expression” (Bioorg Med Chem Lett, 2011):
# Active and inactive are the calls of the source. No cut-off for these calls is given here.
# Columns and labels:
# Format in all cases: functional, cell-based
# [1] = Reactivation of MeCp2 […] expression in human GM11272 cells at 10 to 100 nM by PCR method
# [2] = Reactivation of MeCp2 […] expression in human GM11272 cells after 6 days by PCR method
# [3] = Reactivation of MeCp2 […] expression in human GM11272 cells at 1 to 100 nM by PCR method
# [4] = Reactivation of MeCp2 […] expression in human GM11272 cells at 1 to 10000 nM by PCR method
SMILES,Activity [2],Activity [3],other results
O=C(O)[C@H](Cc1c[nH]c2ccccc12)N1C(=O)c2ccccc2C1=O,,,Activity [1]: inactive
CCC(=O)CCCCC[C@@H]1NC(=O)[C@H]2CCCCN2C(=O)[C@H]([C@@H](C)CC)NC(=O)[C@H](Cc2cn(OC)c3ccccc23)NC1=O,inactive,,
Cc1[nH]c2ccccc2c1CCNCc1ccc(/C=C/C(=O)NO)cc1,,inactive,
CC(/C=C/C(=O)NO)=C\[C@@H](C)C(=O)c1ccc(N(C)C)cc1,,inactive,
Nc1ccccc1NC(=O)c1ccc(CNC(=O)OCc2cccnc2)cc1,inactive,,
Nc1ncn([C@H]2C[C@H](O)[C@@H](CO)O2)c(=O)n1,inactive,inactive,
O=C(CCCCCCC(=O)Nc1ccccc1)NO,,,Activity [1]: inactive
O=c1ncccn1[C@@H]1O[C@H](CO)[C@@H](O)[C@H]1O,,inactive,
CCCC(CCC)C(=O)O,,,Activity [4]: inactive
